Data: US20240197610A1, “CERAMIDE GROWTH PROMOTING AGENT” (TAKASAGO INTERNATIONAL CORPORATION, priority 2020, published 2024)

Test system: late differentiated cultured human keratinocytes (LDKs)
Assay: Ceramide growth test in cultured human keratinocytes (LC-ESI-MS/MS quantification of ceramide species)
Type: cell-based
Experimental: Experiments were conducted using undifferentiated and late differentiated cultured human keratinocytes (KCs). Human keratinocytes were cultured in a serum-free KC growth medium containing 0.07 mM calcium, and collected to be undifferentiated cells when KCs occupied up to about 60% to 70% of the total area of the culture petri dish (about 60% to 70% confluence). KCs were cultured in a serum-free KC growth medium containing 0.07 mM of calcium, and the medium was replaced with DMEM containing 10% fetal bovine serum containing 1.2 mM of calcium, 10 μg/mL insulin, 0.4 μg/mL hydrocortisone, and 50 μg/mL of vitamin C and Ham's F-12 (2:1, v/v) when KCs occupied up to about 70% to 80% of the total area of the culture petri dish (about 70% to 80% confluence), followed by culturing for 8 days. Next, cells cultured for 3 days in a DMEM medium containing 10% fetal bovine serum containing 1.2 mM of calcium, 10 μg/mL insulin, 0.4 μg/mL hydrocortisone, and 50 μg/mL of vitamin C were used as late differentiated cultured human keratinocytes (LDKs).
From the second day of culture to the fourth, sixth, eighth, ninth, and tenth days, the ceramide preparation (I % ceramide NDS solution) prepared in Example 1 was diluted with a medium, filtered with a filter paper having a pore size of 0.45 μm, and 15.9 μL, 79.6 μL, and 397.7 μL (=10 μM, 50 μM, 250 μM) thereof were added, separately. In addition, 79.6 μL of a Blk solution not containing ceramide prepared in Comparative Example 1 was added, followed by culturing.
100 μg of each of the culture solutions prepared above and 100 μmol of an internal standard substance mixture (C17 (carbon number 17)-ceramide NS=N-octadecanoylamino-C17 sphingosine, C17-sphingosine, C17-dihydrosphingosine) were added to a mixed solution of a 0.1 N HCl aqueous solution: chloroform: methanol (volume ratio 1:2:1) and stirred, and then the organic phase of the lower layer was dried in vacuo, and the extraction drying operation was repeated twice. The obtained residue was dissolved in 200 μl of a methanol/acetonitrile equivalent mixture, and analyzed by the following liquid chromatography tandem mass spectrometry (LC-ESI-MS/MS) system (API 3200 QTRAP mass, ABCIEX). […]
10 μL of the extracted sample was analyzed by HPLC (HTS HPLC system manufactured by Shiseido Co., Ltd.) with a reverse phase KINTEX C18 column (2.1×50 mm, ID=2.6 μm). The column was previously equilibrated with a solvent A (MeOH: 0.05% formic acid aqueous solution: 80:20), the lipid was dissolved in a solvent B(2-propanol:0.05% formic acid methanol solution: 99:1), and a mass spectrum was detected in a positive mode by electrospray ionization with a gradient applied at a flow rate of 0.3 ml/min. […]

CCCCCCCCCCCCCCCCCC(=O)N[C@@H](CO)[C@H](O)CCCCCCCCCCCCCCC [ceramide NDS, (2S,3R)-2-octadecanoylaminooctadecane-1,3-diol]
ceramide NSs (acyl chain length 14 to 26) amount (Example 1 preparation added at 10 μM, 50 μM, 250 μM, 10 days culture, p<0.01 vs LDK without ceramide NDS, FIG. 4): significantly increased | ceramide NDSs (different acyl chain lengths of 14 to 26) amount (Example 1 preparation added at 10 μM, 50 μM, 250 μM, 10 days culture, p<0.01 vs LDK without ceramide NDS, FIG. 5): significantly increased | ceramide EOSs (ω-hydroxy acid amide bond of 30 and 32 carbon atoms, esterified with linoleic acid at ω-position) amount (Example 1 preparation added at 10 μM, 50 μM, 250 μM, 10 days culture, p<0.01 vs LDKs without ceramide NDS, FIG. 3): significantly increased | growth of various ceramide species (ceramide preparation added to keratinocyte culture): are grown
